The record followed here is patent US10123993B2, “Cyclic ureas as inhibitors of rock” (BRISTOL-MYERS SQUIBB COMPANY, priority 2015, dated 2018).

The structures appear in SMILES notation.

For the test, the target named is ROCK2 (Homo sapiens, UniProt O75116). As to the kind of experiment: ROCK2 kinase inhibition assay (Caliper LABCHIP, FITC peptide substrate). In kind it is biochemical. To be noted: 5 μM ATP, 1.5 μM peptide substrate; value ranges. The method, then: The effectiveness of compounds of the present invention as ROCK inhibitors can be determined in a 30 μL assay containing 20 mM HEPES, pH 7.5, 20 mM MgCl2, 0.015% Brij-35, 4 mM DTT, 5 μM ATP and 1.5 μM peptide substrate (FITC-AHA-AKRRRLSSLRA-OH). Compounds were dissolved in DMSO so that the final concentration of DMSO was <2%, and the reaction was initiated with Rho kinase variants. After incubation, the reaction was terminated by the addition of EDTA and the phosphorylated and non-phosphorylated peptides separated using a LABCHIP® 3000 Reader (Caliper Life Sciences). […] Compounds were tested in dose-response format, and the inhibition of kinase activity was calculated at each concentration of compound. The inhibition data were fit using a curve-fitting program to determine the IC50; i.e., the concentration of compound required to inhibit 50% of kinase activity.
Sequence of ROCK2 (O75116 whole entry, species assumed): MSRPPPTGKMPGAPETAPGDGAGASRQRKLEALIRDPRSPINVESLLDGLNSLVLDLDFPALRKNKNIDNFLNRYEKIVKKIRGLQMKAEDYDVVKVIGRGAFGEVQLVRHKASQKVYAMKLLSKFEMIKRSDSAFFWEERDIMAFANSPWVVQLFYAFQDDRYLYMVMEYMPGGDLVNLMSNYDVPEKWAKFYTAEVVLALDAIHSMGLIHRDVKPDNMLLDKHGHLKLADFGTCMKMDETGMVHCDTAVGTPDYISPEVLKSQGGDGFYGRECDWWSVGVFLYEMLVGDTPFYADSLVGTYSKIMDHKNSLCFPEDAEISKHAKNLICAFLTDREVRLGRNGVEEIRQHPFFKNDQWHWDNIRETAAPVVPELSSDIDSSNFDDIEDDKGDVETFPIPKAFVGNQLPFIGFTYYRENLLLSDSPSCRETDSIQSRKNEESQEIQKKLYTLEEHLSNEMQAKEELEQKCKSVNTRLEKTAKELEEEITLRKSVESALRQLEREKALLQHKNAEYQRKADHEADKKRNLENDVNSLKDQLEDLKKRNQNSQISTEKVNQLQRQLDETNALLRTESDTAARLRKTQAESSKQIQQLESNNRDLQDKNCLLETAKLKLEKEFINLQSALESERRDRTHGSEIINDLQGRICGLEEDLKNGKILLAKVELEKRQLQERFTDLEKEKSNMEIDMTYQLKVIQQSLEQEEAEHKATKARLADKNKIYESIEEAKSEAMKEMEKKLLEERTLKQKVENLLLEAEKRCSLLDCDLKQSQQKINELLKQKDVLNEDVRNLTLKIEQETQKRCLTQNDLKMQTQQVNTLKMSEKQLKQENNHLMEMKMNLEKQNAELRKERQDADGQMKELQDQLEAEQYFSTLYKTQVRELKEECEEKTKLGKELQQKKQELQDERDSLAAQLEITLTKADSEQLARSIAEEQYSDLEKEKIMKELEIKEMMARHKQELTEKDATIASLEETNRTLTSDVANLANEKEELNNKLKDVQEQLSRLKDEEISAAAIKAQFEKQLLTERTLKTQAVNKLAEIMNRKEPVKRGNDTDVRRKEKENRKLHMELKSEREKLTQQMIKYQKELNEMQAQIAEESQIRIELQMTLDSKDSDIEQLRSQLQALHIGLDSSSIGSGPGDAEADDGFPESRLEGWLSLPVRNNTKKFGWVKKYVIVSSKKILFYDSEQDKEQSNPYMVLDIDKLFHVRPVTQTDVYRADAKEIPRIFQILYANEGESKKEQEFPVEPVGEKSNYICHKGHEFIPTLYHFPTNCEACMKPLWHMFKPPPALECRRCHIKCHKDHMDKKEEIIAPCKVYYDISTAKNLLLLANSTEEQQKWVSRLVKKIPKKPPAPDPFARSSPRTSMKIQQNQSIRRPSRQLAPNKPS
Representative Examples were tested in the ROCK2 assay described above and found having ROCK inhibitory activity.
Regarding `COc1cc(C(C)N2CCN(c3ccc(-c4cn[nH]c4)c(C)n3)C2=O)ccc1F` (single isomer, unassigned) [Example 208, 1-(1-(4-fluoro-3-methoxyphenyl)ethyl)-3-(6-methyl-5-(1H-pyrazol-4-yl)pyridin-2-yl)imidazolidin-2-one], the IC50 was in the range of 200 to 2000 nM.
Then `COc1cc(C(C)N2CCN(c3ccc(-c4cn[nH]c4)c(C)n3)C2=O)ccc1F` (single isomer, unassigned) [Example 209, 1-(1-(4-fluoro-3-methoxyphenyl)ethyl)-3-(6-methyl-5-(1H-pyrazol-4-yl)pyridin-2-yl)imidazolidin-2-one], with 2.1 to 20 nM; and `COc1nc(N2CCN(C(C)c3cccc(OCC4CC4)c3)C2=O)ccc1-c1cn[nH]c1` (single isomer, unassigned) [Example 212, 1-(1-(3-(cyclopropylmethoxy)phenyl)ethyl)-3-(6-methoxy-5-(1H-pyrazol-4-yl)pyridin-2-yl)imidazolidin-2-one], with 2.1 to 20 nM; and `COc1nc(N2CCN(C(C)c3cccc(OCC4CC4)c3)C2=O)ccc1-c1cn[nH]c1` (single isomer, unassigned) [Example 213, 1-(1-(3-(cyclopropylmethoxy)phenyl)ethyl)-3-(6-methoxy-5-(1H-pyrazol-4-yl)pyridin-2-yl)imidazolidin-2-one], with 200 to 2000 nM.
The same measure for `COc1cccc(C(C)N2CCN(c3ccc(-c4cn[nH]c4)c(OC)n3)C2=O)c1` (single isomer, unassigned) [Example 219, 1-(6-methoxy-5-(1H-pyrazol-4-yl)pyridin-2-yl)-3-(1-(3-methoxyphenyl)ethyl)imidazolidin-2-one]: under 2 nM; for `COc1cccc(C(C)N2CCN(c3ccc(-c4cn[nH]c4)c(OC)n3)C2=O)c1` (single isomer, unassigned) [Example 220, 1-(6-methoxy-5-(1H-pyrazol-4-yl)pyridin-2-yl)-3-(1-(3-methoxyphenyl)ethyl)imidazolidin-2-one]: 20.1 to 200 nM.
The compound `COc1cc(F)cc(C(C)N2CCN(c3ccc(-c4cn[nH]c4)c(OC)n3)C2=O)c1` (single isomer, unassigned) [Example 228, 1-(1-(3-fluoro-5-methoxyphenyl)ethyl)-3-(6-methoxy-5-(1H-pyrazol-4-yl)pyridin-2-yl)imidazolidin-2-one] had a half-maximal inhibitory concentration (IC50) of under 2 nM.
Then `COc1cc(F)cc(C(C)N2CCN(c3ccc(-c4cn[nH]c4)c(OC)n3)C2=O)c1` (single isomer, unassigned) [Example 229, 1-(1-(3-fluoro-5-methoxyphenyl)ethyl)-3-(6-methoxy-5-(1H-pyrazol-4-yl)pyridin-2-yl)imidazolidin-2-one], with 2.1 to 20 nM.
The same measure for `COc1cc(C(C)N2CCN(c3ccc(-c4cn[nH]c4)c(OC)n3)C2=O)ccc1F` (single isomer, unassigned) [Example 230, 1-(1-(4-fluoro-3-methoxyphenyl)ethyl)-3-(6-methoxy-5-(1H-pyrazol-4-yl)pyridin-2-yl)imidazolidin-2-one]: under 2 nM; for `COc1cc(C(C)N2CCN(c3ccc(-c4cn[nH]c4)c(OC)n3)C2=O)ccc1F` (single isomer, unassigned) [Example 231, 1-(1-(4-fluoro-3-methoxyphenyl)ethyl)-3-(6-methoxy-5-(1H-pyrazol-4-yl)pyridin-2-yl)imidazolidin-2-one]: 20.1 to 200 nM; for `CCc1nc(N2CCN(C(C)c3cccc(OCC4CC4)c3)C2=O)ccc1-c1cn[nH]c1` (single isomer, unassigned) [Example 265, 1-(1-(3-(cyclopropylmethoxy)phenyl)ethyl)-3-(6-ethyl-5-(1H-pyrazol-4-yl)pyridin-2-yl)imidazolidin-2-one]: 20.1 to 200 nM.
For `CCOc1cccc(C(C)N2CCN(c3ccc(-c4cn[nH]c4)c(CC)n3)C2=O)c1` (single isomer, unassigned) [Example 266, 1-(1-(3-ethoxyphenyl)ethyl)-3-(6-ethyl-5-(1H-pyrazol-4-yl)pyridin-2-yl)imidazolidin-2-one], the IC50 was 2.1 to 20 nM.
Then `CCOc1cccc(C(C)N2CCN(c3ccc(-c4cn[nH]c4)c(CC)n3)C2=O)c1` (single isomer, unassigned) [Example 267, 1-(1-(3-ethoxyphenyl)ethyl)-3-(6-ethyl-5-(1H-pyrazol-4-yl)pyridin-2-yl)imidazolidin-2-one], with 200 to 2000 nM; and `CCc1nc(N2CCN(C(C)c3cc(F)cc(OC)c3)C2=O)ccc1-c1cn[nH]c1` (single isomer, unassigned) [Example 268, 1-(6-ethyl-5-(1H-pyrazol-4-yl)pyridin-2-yl)-3-(1-(3-fluoro-5-methoxyphenyl)ethyl)imidazolidin-2-one], with under 2 nM; and `CCc1nc(N2CCN(C(C)c3cc(F)cc(OC)c3)C2=O)ccc1-c1cn[nH]c1` (single isomer, unassigned) [Example 269, 1-(6-ethyl-5-(1H-pyrazol-4-yl)pyridin-2-yl)-3-(1-(3-fluoro-5-methoxyphenyl)ethyl)imidazolidin-2-one], with 20.1 to 200 nM.
The same measure for `CCc1nc(N2CCN(C(C)c3ccc(F)c(OC)c3)C2=O)ccc1-c1cn[nH]c1` (single isomer, unassigned) [Example 270, 1-(6-ethyl-5-(1H-pyrazol-4-yl)pyridin-2-yl)-3-(1-(4-fluoro-3-methoxyphenyl)ethyl)imidazolidin-2-one]: 2.1 to 20 nM; for `CCc1nc(N2CCN(C(C)c3ccc(F)c(OC)c3)C2=O)ccc1-c1cn[nH]c1` (single isomer, unassigned) [Example 271, 1-(6-ethyl-5-(1H-pyrazol-4-yl)pyridin-2-yl)-3-(1-(4-fluoro-3-methoxyphenyl)ethyl)imidazolidin-2-one]: 200 to 2000 nM; for `COc1cccc(C(C)(CO)N2CCN(c3ccc(-c4cn[nH]c4)cc3)C2=O)c1` (single isomer, unassigned) [Example 286, 1-(4-(1H-Pyrazol-4-yl)phenyl)-3-(1-hydroxy-2-(3-methoxyphenyl)propan-2-yl)imidazolidin-2-one]: 20.1 to 200 nM.
`COc1cccc(C(C)(CO)N2CCN(c3ccc(-c4cn[nH]c4)cc3)C2=O)c1` (single isomer, unassigned) [Example 287, 1-(4-(1H-Pyrazol-4-yl)phenyl)-3-(1-hydroxy-2-(3-methoxyphenyl)propan-2-yl)imidazolidin-2-one] returned an IC50 of 20.1 to 200 nM.
Then `COc1cccc(C(C(=O)O)N2CCN(c3ccc(-c4cn[nH]c4)cc3)C2=O)c1` (single isomer, unassigned) [Example 288, 2-(3-(4-(1H-Pyrazol-4-yl)phenyl)-2-oxoimidazolidin-1-yl)-2-(3-methoxyphenyl)acetic Acid], with 200 to 2000 nM; and `CCNC(=O)C(c1cccc(OC)c1)N1CCN(c2ccc(-c3cn[nH]c3)cc2)C1=O` (single isomer, unassigned) [Example 289, 2-(3-(4-(1H-Pyrazol-4-yl)phenyl)-2-oxoimidazolidin-1-yl)-N-ethyl-2-(3-methoxyphenyl)acetamide], with 2.1 to 20 nM.
Then `CCNC(=O)C(c1cccc(OC)c1)N1CCN(c2ccc(-c3cn[nH]c3)cc2)C1=O` (single isomer, unassigned) [Example 290, 2-(3-(4-(1H-Pyrazol-4-yl)phenyl)-2-oxoimidazolidin-1-yl)-N-ethyl-2-(3-methoxyphenyl)acetamide], with 20.1 to 200 nM; and `CNC(=O)C(c1cccc(OC)c1)N1CCN(c2ccc(-c3cn[nH]c3)cc2)C1=O` (single isomer, unassigned) [Example 291, 2-(3-(4-(1H-pyrazol-4-yl)phenyl)-2-oxoimidazolidin-1-yl)-2-(3-methoxyphenyl)-N-methylacetamide], with 20.1 to 200 nM.
For `CNC(=O)C(c1cccc(OC)c1)N1CCN(c2ccc(-c3cn[nH]c3)cc2)C1=O` (single isomer, unassigned) [Example 292, 2-(3-(4-(1H-pyrazol-4-yl)phenyl)-2-oxoimidazolidin-1-yl)-2-(3-methoxyphenyl)-N-methylacetamide], the IC50 was 2.1 to 20 nM.
Then `COc1cccc(C(C(=O)NCC(C)C)N2CCN(c3ccc(-c4cn[nH]c4)cc3)C2=O)c1` (single isomer, unassigned) [Example 293, 2-(3-(4-(1H-pyrazol-4-yl)phenyl)-2-oxoimidazolidin-1-yl)-N-isobutyl-2-(3-methoxyphenyl)acetamide], with 200 to 2000 nM.
Then `COc1cccc(C(C(=O)NCC(C)C)N2CCN(c3ccc(-c4cn[nH]c4)cc3)C2=O)c1` (single isomer, unassigned) [Example 294, 2-(3-(4-(1H-pyrazol-4-yl)phenyl)-2-oxoimidazolidin-1-yl)-N-isobutyl-2-(3-methoxyphenyl)acetamide], with 2.1 to 20 nM; and `COc1cccc(C(C(N)=O)N2CCN(c3ccc(-c4cn[nH]c4)cc3)C2=O)c1` (single isomer, unassigned) [Example 295, 2-(3-(4-(1H-pyrazol-4-yl)phenyl)-2-oxoimidazolidin-1-yl)-2-(3-methoxyphenyl)acetamide], with 20.1 to 200 nM; and `COc1cccc(C(C(=O)NCC2CC2)N2CCN(c3ccc(-c4cn[nH]c4)cc3)C2=O)c1` (single isomer, unassigned) [Example 296, 2-(3-(4-(1H-pyrazol-4-yl)phenyl)-2-oxoimidazolidin-1-yl)-N-(cyclopropylmethyl)-2-(3-methoxyphenyl)acetamide], with 20.1 to 200 nM.
Then `COc1cccc(C(C(=O)NCC2CC2)N2CCN(c3ccc(-c4cn[nH]c4)cc3)C2=O)c1` (single isomer, unassigned) [Example 297, 2-(3-(4-(1H-pyrazol-4-yl)phenyl)-2-oxoimidazolidin-1-yl)-N-(cyclopropylmethyl)-2-(3-methoxyphenyl)acetamide], with 200 to 2000 nM.

The IC50 is the concentration needed to halve the response being measured.
